Series [1] has as its system KRAS G12D mutant AGS cells. The series is described as follows: Proliferation inhibition of AGS cells, CellTiter-Glo assay. The class given is cell-based, human. Conditions: Homo sapiens, AGS, 72 h, 3 days, CTG; read-out: AGS IC50/nM. In a few lines:
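AGS cells at 1500 cells/well in F12K + 10% FBS were exposed for 3 days at 37°C to nine 3-fold dilutions from 10 µM top concentration, in duplicate. Viability read by CellTiter-Glo luminescence; IC50 (nM) from dose-response-inhibition fitting.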
A general note: In ATP-based viability assays light output follows the ATP content of the culture.

A further series in a line: Pharmacokinetics in mice. Conditions: mouse, po.
Series [2] relates to KRAS G12V mutant NCI-H727 cells. The series is described as follows: Proliferation inhibition of NCI-H727 cells, 3D CellTiter-Glo assay (Method B). Type of series: cell-based, human. Conditions: Homo sapiens, NCI-H727, 120 h, Method B; 3D culture with 0.65% methylcellulose, 5 days, CTG; read-out: NCI-H727 IC50/nM. The method, boiled down:
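Cells grown in 3D medium (RPMI-1640, 10% FBS, 0.65% methylcellulose) overnight, then treated 5 days at 37 °C, 5% CO2 with 9 threefold dilutions from 10 µM top working concentration, duplicate wells. CellTiter-Glo luminescence read; IC50 (nM) fitted by dose-response-inhibition equation.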

Series [3] concerns human lung cancer cells NCI-H441 with KRAS-G12V mutation. The series is described as follows: Antitumor effect in NCI-H441 subcutaneous xenograft model. Conditions: 20 mpk, PO; for Tumor volume (mm^3) (day 16): BID×17; for TGI%: BID×17, day 16. The class given is in vivo, NU/NU mice. The method, then: NCI-H441 cells were purchased from ATCC (catalog number: HTB-174). Male NU/NU mice were purchased from Jiangsu Jicui Yaokang Biotechnology Co., Ltd.
NCI-H441 cells were cultured in RPMI-1640 medium containing 10% FBS. Cells in the logarithmic growth phase were collected and resuspended in PBS to an appropriate concentration for subcutaneous tumor inoculation in mice. Experimental mice were subcutaneously inoculated in the right posterior back at a seeding density of 1×10^6 cells/mouse+Matrigel, with a seeding volume of 0.1 mL. When the average tumor volume reached ~150 mm^3, mice were randomly assigned to groups based on tumor size and body weight for drug administration. Drug administration began immediately after grouping, and the day of administration was considered day 0. The drug was administered to the mice twice daily via gavage at doses of 10 mpk, 20 mpk, 30 mpk, or a solvent control (0.5% Tween 80+99.5% of 0.5% MC (400 cp) or 0.5% MC (400 cp)). During the experiment, mouse body weight and tumor size were measured twice weekly. Tumor size was calculated using the formula: Tumor volume (mm^3)=0.5×(Tumor long diameter × Tumor short diameter^2). Relative tumor inhibition rate (TGI) (%): TGI%=[1-(Average tumor volume at the end of treatment in a given treatment group - Average tumor volume at the start of treatment in the treatment group) / (Average tumor volume at the end of treatment in the solvent control group - Average tumor volume at the start of treatment in the solvent control group)] × 100%.

Series [4] has as its system KRAS G12S mutant A549 cells. The series is described as follows: Proliferation inhibition of A549 cells, 3D CellTiter-Glo assay. Type of series: cell-based. As to conditions: Homo sapiens, A549, 120 h, read-out: A549 IC50/nM. The method, then:
A549 cells (Nanjing Kebai Biotechnology Co., Ltd., catalog number CBP60084, adherent, culture medium (F12K Nutrient Mixture+10%FBS (GIBCO, Cat#10091-148) at 37°C, 5%CO2, and 95% humidity.
3D Cell Viability Assay: Cells in the logarithmic growth phase were harvested and counted using a platelet counter. Cell viability was assessed using the trypan blue exclusion method to ensure a viability of over 90%. The 3D cell culture medium was prepared by adding 1% MC (methylcellulose, Sigma, Cat#M0512) F-12K medium and 10% FBS. The cell concentration was adjusted to approximately 7407 cells/mL using the 3D medium, and the methylcellulose (MC) content was set to 0.65%. Then, 135 µL of cell suspension was added to each 96-well clear, flat-bottomed, black-walled plate (Greiner, Cat#655096). The cells in the 96-well plates were cultured overnight at 37°C with 5% CO2.
Drug preparation for IC50 assay: A 10-fold drug solution was prepared using culture medium. […] of the drug solution was added to each well of a 96-well plate seeded with cells to achieve a working concentration of up to 10 µM, with a 3× dilution, and 9 concentrations. 2 replicate wells for each drug concentration were set. The cells in the drug-treated 96-well plates were cultured at 37°C and 5% CO^2 for additional5 days, then CTG assay (CellTiter-Glo® Luminescent Cell Viability Assay (Promega, Cat#G7573)) were performed.
The cell plate was equilibrated to room temperature for 30 minutes and the CTG reagent was thawed. 75 µL of CTG solution was added to each well for detection, and the plate was shaken on an orbital shaker for 5 minutes to lyse the cells. The cell plate was placed at room temperature for 25 minutes to stabilize the cryo-luminescence signal and the cryo-luminescence value was read (EnVision® multi-plate reader, PerkinElmer#2105).
Data was analyzed using GraphPad Prism software. The dose-response-inhibition equation was used to fit the data to obtain the dose-response curve, and the IC50 value (nM) was calculated accordingly. [formula]

Bounds are passed on as bounds.

The values below come from patent EP4775577A1, “RAS INHIBITOR” (Tyligand Bioscience (Shanghai) Limited, priority 2023, dated 2025).

Protocol for Pharmacokinetics in mice: Male CD-1 mice, aged 6-8 weeks, were purchased from Zhejiang Vital River Laboratory Animal Co., Ltd.
For the PO administration group, compounds were formulated in 0.5% Tween 80 and 99.5% (0.5%MC (400cp)) vehicle or 0.5%MC (400cp) vehicle to a final concentration of 1 mg/mL or 2 mg/mL for each compound. The drug formulation was administered to CD-1 mice via gavage at a dose of 10 mL/kg. Blood samples were collected from the submandibular vein or other suitable means at 15 min, 30 min, 1 h, 2 h, 4 h, 6 h, 8 h, and 24 h after administration. The blood samples were centrifuged at low temperature for 5 minutes, and the plasma was collected and stored at -80°C for analysis.
10 µL of plasma sample was taken, 200 µL of methanol containing an internal standard as a precipitant was added to precipitate plasma proteins, the compounds to be tested in the plasma was extracted, centrifuged at low temperature, and 10 µL of the supernatant was injected. The drug concentration in blood plasma was analyzed by LC-MS/MS. The pharmacokinetic parameters were calculated using Winnonlin based on the blood drug concentration data at different time points.

Turning to `CCN1CC/C(=C\F)[C@](C)(COc2nc(N3Cc4c(COC)c(C(=O)N(C)C)nn4CC[C@@H]3C)c3cc(Cl)c(-c4c(F)cc(F)c5sc(N)c(C#N)c45)c(F)c3n2)C1` (single isomer, unassigned) [Example 237A], the IC50 in series [1] and in series [2] was below 1.5 nM in each case. In addition, the AUC(0-t) (in general, the area under the concentration-time curve up to a stated or last time point) at 8 h in the series “Pharmacokinetics in mice” (plasma, 20 mg/kg) stood at 3910 ng·h/mL.

For `CCN1CC/C(=C\F)[C@](C)(COc2nc(N3CCCn4nc(C(=O)N(C)C)c(Cl)c4C3)c3cc(Cl)c(-c4c(F)ccc5sc(N)c(C#N)c45)c(F)c3n2)C1` (single isomer, unassigned) [Example 256A], the IC50 in series [1] was 1.5 nM; in series [2], below 1.5 nM. The compound further registered an AUC(0-t) at 8 h in the series “Pharmacokinetics in mice” (plasma, 20 mg/kg) of 1380 ng·h/mL.

Turning to `CCN1CC/C(=C\F)[C@](C)(COc2nc(N3Cc4cc(C(C)=O)nn4CC[C@@H]3C)c3cc(Cl)c(-c4c(F)ccc5sc(N)c(C#N)c45)c(F)c3n2)C1` (single isomer, unassigned) [Example 268A], the IC50 in series [1] came to 3.5 nM; in series [2], 4 nM. Besides, the AUC(0-t) at 8 h in the series “Pharmacokinetics in mice” (plasma, 10 mg/kg) turned out to be 907 ng·h/mL.

Turning to `CCN1CCC(C(F)F)C(C)(COc2nc(N3Cc4c(COC)c(C(=O)N(C)C)nn4CCC3C)c3cc(Cl)c(-c4c(F)ccc5sc(N)c(C#N)c45)c(F)c3n2)C1` (centres unmarked) [Example 251A], the IC50 in series [1] is 1.8 nM; in series [2], below 1.5 nM. This compound came in with an AUC(0-t) at 8 h in the series “Pharmacokinetics in mice” (plasma, 20 mg/kg) of 1960 ng·h/mL.

As for `CCN1CC/C(=C\F)[C@](C)(COc2nc(N3Cc4c(COC)c(C(=O)N(C)C)nn4CC[C@@H]3C)c3cc(Cl)c(-c4c(F)ccc5sc(N)c(C#N)c45)c(C)c3n2)C1` (single isomer, unassigned) [Example 229A], the figures for the IC50 in series [1] and in series [2] were 1.7 nM and below 1.5 nM, respectively. Besides, in “Pharmacokinetics in mice” (in vivo, 20 mg/kg), the AUC(0-t) at 8 h is 4490 ng·h/mL.

Turning to `[2H]C([2H])([2H])C([2H])([2H])N1CC/C(=C\F)[C@](C)(COc2nc(N3Cc4c(COC)c(C(=O)N(C)C)nn4CC[C@@H]3C)c3cc(Cl)c(-c4c(F)ccc5sc(N)c(C#N)c45)c(C)c3n2)C1` (atropisomer, axis not shown) [Example 249A], the IC50 in series [1] was 2.3 nM; in series [2], below 1.5 nM. The compound also registered an AUC(0-t) at 8 h in “Pharmacokinetics in mice” (in vivo, 20 mg/kg) of 5360 ng·h/mL.

For the compound `CCN1CC/C(=C\F)[C@](C)(COc2nc(N3Cc4c(O)c(C(=O)N(C)C)nn4CC[C@@H]3C)c3cc(Cl)c(-c4c(F)ccc5sc(N)c(C#N)c45)c(F)c3n2)C1` (single isomer, unassigned) [Example 233A], the IC50 in series [1] and in series [2] was below 1.5 nM in each case. This compound also registered an AUC(0-t) at 8 h in the series “Pharmacokinetics in mice” (in vivo, 20 mg/kg) of 822 ng·h/mL.

Take `CCN1CC/C(=C\F)[C@](C)(COc2nc(N3Cc4cc(C(=O)N(C)C)nn4CC[C@@H]3C)c3cc(Cl)c(-c4c(F)ccc5sc(N)c(C#N)c45)c(F)c3n2)C1` (atropisomer, axis not shown) [Example 246A]: the IC50 in series [1] and in series [2] was below 1.5 nM throughout. For the same compound, the AUC(0-t) at 8 h in “Pharmacokinetics in mice” (plasma, 20 mg/kg) came out at 1040 ng·h/mL.

As for `[2H]C([2H])([2H])N(C(=O)c1nn2c(c1COC)CN(c1nc(OC([2H])([2H])[C@]3(C)CN(CC)CC/C3=C\F)nc3c(F)c(-c4c(F)ccc5sc(N)c(C#N)c45)c(Cl)cc13)[C@@H](C)CC2)C([2H])([2H])[2H]` (single isomer, unassigned) [Example 235A], the IC50 in series [1] and in series [2] was below 1.5 nM throughout. This compound had an AUC(0-t) at 8 h in the series “Pharmacokinetics in mice” (plasma, 20 mg/kg) of 2990 ng·h/mL.

With `CCN1CC/C(=C\F)[C@](C)(COc2nc(N3Cc4cc(C(=O)N(C)C)nn4CC[C@@H]3C)c3cc(Cl)c(-c4c(F)ccc5sc(N)c(C#N)c45)c(C)c3n2)C1` (single isomer, unassigned) [Example 178A], the IC50 is 1.9 nM in series [1] and below 1.5 nM in series [2]. The compound further had an AUC(0-t) at 8 h in the series “Pharmacokinetics in mice” (plasma, 10 mg/kg) of 1190 ng·h/mL.

Take `[2H]C([2H])([2H])N1CCC(=CF)C(C)(COc2nc(N3Cc4cc(C(=O)N(C)C)nn4CCC3C)c3cc(Cl)c(-c4c(F)ccc5sc(N)c(C#N)c45)c(F)c3n2)C1` (centres unmarked) [Example 255A]: in series [1], the IC50 is below 1.5 nM. In series [3], the “Tumor volume (mm^3) (day 16)” value is reported as 259 mm^3 and the TGI% stood at 74%. For the same compound, the IC50 in series [2] was below 1.5 nM.

In the case of `[2H]C([2H])([2H])N1CC/C(=C\F)[C@](C)(COc2nc(N3Cc4c(COC)c(C(=O)N(C)C)nn4CC[C@@H]3C)c3cc(CC)c(-c4c(F)ccc5sc(N)c(C#N)c45)c(F)c3n2)C1` (single isomer, unassigned) [Example 258A], the results for the IC50 in series [1] and in series [2] were 1.9 nM and below 1.5 nM, respectively. The AUC(0-t) at 8 h in “Pharmacokinetics in mice” (plasma, 20 mg/kg) turned out to be 1320 ng·h/mL.

In the case of `CC[C@H]1CCn2nc(C(=O)N(C)C)c(COC)c2CN1c1nc(OC[C@]2(C)CN(CC)CC/C2=C\F)nc2c(F)c(-c3c(F)ccc4sc(N)c(C#N)c34)c(Cl)cc12` (single isomer, unassigned) [Example 240A], the IC50 in series [1] is 2.5 nM; in series [2], below 1.5 nM. Moreover, in the series “Pharmacokinetics in mice” (plasma, 20 mg/kg), the exposure AUC(0-t) at 8 h was determined as 2920 ng·h/mL.

With `CCOc1c(C(=O)N(C)C)nn2c1CN(c1nc(OC[C@]3(C)CN(CC)CC/C3=C\F)nc3c(F)c(-c4c(F)ccc5sc(N)c(C#N)c45)c(Cl)cc13)[C@@H](C)CC2` (single isomer, unassigned) [Example 236A], the values for the IC50 in series [1] and in series [2] were 2.7 nM and 1.5 nM, respectively. Besides, in “Pharmacokinetics in mice” (plasma, 20 mg/kg), the AUC(0-t) at 8 h worked out at 2820 ng·h/mL.

Turning to `[2H]C([2H])([2H])N1CC/C(=C\F)[C@](C)(COc2nc(N3CCCn4nc(C(=O)N(C)C)c(Cl)c4C3)c3cc(C4CC4)c(-c4c(F)ccc5sc(N)c(C#N)c45)c(F)c3n2)C1` [Example 266A], the IC50 in series [1] is below 1.5 nM. Further, in series [3], the “Tumor volume (mm^3) (day 16)” value is 307 mm^3 and the TGI% was found to be 63%. For the same compound, the IC50 in series [2] worked out at 3 nM.

`[2H]C([2H])([2H])C([2H])([2H])N1CC/C(=C\F)[C@](C)(COc2nc(N3Cc4c(COC)c(C(=O)N(C)C)nn4CC[C@@H]3C)c3cc(Cl)c(-c4c(F)ccc5sc(N)c(C#N)c45)c(F)c3n2)C1` (atropisomer, axis not shown) [Example 243A]: the IC50 in series [1] and in series [2] was below 1.5 nM throughout. In addition, the AUC(0-t) at 8 h in the series “Pharmacokinetics in mice” (plasma, 20 mg/kg) came to 9960 ng·h/mL.

For `[2H]C([2H])([2H])N1CC[C@H](C(F)F)[C@](C)(COc2nc(N3Cc4cc(C(=O)N(C)C)nn4CC[C@@H]3C)c3cc(CC)c(-c4c(F)ccc5sc(N)c(C#N)c45)c(F)c3n2)C1` (single isomer, unassigned) [Example 174A], the IC50 in series [1] is below 1.5 nM; in series [4] it was 51.9 nM; in series [2], 2.5 nM.

As to `CCN1CC/C(=C\F)[C@](C)(COc2nc(N3Cc4c(COC)c(C(=O)N(C)C)nn4CC[C@@H]3C)c3cc(Cl)c(-c4c(F)ccc5sc(N)c(C#N)c45)c(C(F)F)c3n2)C1` (atropisomer, axis not shown) [Example 241A], the figures for the IC50 in series [1] and in series [2] were 8.3 nM and 6.5 nM, respectively. Besides, the AUC(0-t) at 8 h in “Pharmacokinetics in mice” (plasma, 20 mg/kg) turned out to be 1660 ng·h/mL.
